Here are results for one compound from patent US20210268017A1, “MOLECULAR HYDROGEN-CONTAINING COMPOSITION FOR PREVENTION AND/OR IMPROVEMENT OF PNEUMONIA” (MiZ Company Limited, priority 2020, published 2021).

One data set relates to interstitial pneumonia. Conditions: patient; drip infusion 1 ppm hydrogen 250 ml plus hydrogen gas inhalation (6 to 7%, 120 ml/min) 30 to 60 minutes once weekly for 8 weeks. Here is the method: A patient who was diagnosed as having interstitial pneumonia received a drip infusion of hydrogen (1 ppm hydrogen, 250 ml) and inhalation of hydrogen gas over 30 minutes to 60 minutes once weekly for 8 weeks. MHG-2000α manufactured by MiZ Company Limited (hydrogen gas concentration 6 to 7%, 120 ml/min) was used for inhalation of a hydrogen gas.

Data set [1] has as its system chronic bronchitis and obstructive lung bronchitis. The settings on record: mice; earlier study; cited from earlier work.
For data set [2] the following is noted: room temperature, normal pressure; also printed as 1.6 mg/L; cited from earlier work.

Take `[HH]` [hydrogen, molecular hydrogen]: the “improvement of interstitial pneumonia, confirmed by disappearance of ground-glass opacity in the CT finding” value with interstitial pneumonia is “Significant improvement”. The “effect on chronic bronchitis and obstructive lung bronchitis” value in data set [1] is “improved chronic bronchitis and obstructive lung bronchitis”. Besides, in data set [2], the “concentration of hydrogen dissolved in water” value was “approximately 1.6 ppm”.
